Patent US9376425B2, “Heterocyclic compounds as MDM2 inhibitors for the treatment of cancer” (AMGEN INC., priority 2011, dated 2016)
pIC50: −log10 of the molar value.

Target: T1, human MDM2 (GST-hMDM2 1-188), interaction with biotinylated-p53 (1-83) (Homo sapiens, UniProt Q00987)
T1 construct: Amino acid residues 1-188 of human MDM2 were expressed; made in house; host or cells: Escherichia coli
Test: improved HTRF assay (HTRF2 assay), inhibition of HDM2-p53 interaction
Assay type: binding
Settings: 0.2 nM GST-hMDM2, 0.5 nM biotinylated-p53, 100 mM KF
How it was run: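 Time-resolved fluorescence (HTRF) read after >4 h equilibration with SA-XLent/anti-GST cryptate/KF detection reagents. Reaction: compound plus GST-hMDM2 for 20 min at room temperature, then E. coli-expressed biotinylated p53 residues 1-83 for 60 min, 2% DMSO final. Inhibition expressed versus nutlin-3.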

T1 sequence (Q00987 1-188): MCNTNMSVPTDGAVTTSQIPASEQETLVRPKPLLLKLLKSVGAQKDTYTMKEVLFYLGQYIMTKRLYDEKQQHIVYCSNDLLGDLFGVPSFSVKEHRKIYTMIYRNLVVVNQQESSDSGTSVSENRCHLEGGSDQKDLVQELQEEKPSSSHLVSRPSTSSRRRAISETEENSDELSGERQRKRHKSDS

Compound | pIC50
CC(C)(C)S(=O)(=O)C[C@H](C1CC1)N1C(=O)[C@@H](CC(=O)Nc2ccccc2)O[C@H](c2cccc(Cl)c2)[C@H]1c1ccc(Cl)cc1 (single isomer, unassigned) [Example 350, 2-((2R,5R,6R)-4-((S)-2-(tert-Butylsulfonyl)-1-cyclopropylethyl)-6-(3-chlorophenyl)-5-(4-chlorophenyl)-3-oxomorpholin-2-yl)-N-phenylacetamide or 2-42S,5R,6R)-4-((S)-2-(tert-butylsulfonyl)-1-cyclopropylethyl)-6-(3-chlorophenyl)-5-(4-chlorophenyl)-3-oxomorpholin-2-yl)-N-phenylacetamide] | 7.80
C[C@@H](CS(=O)(=O)C(C)(C)C)N1C(=O)[C@H](CC(=O)NS(C)(=O)=O)O[C@H](c2cccc(Cl)c2)[C@H]1c1ccc(Cl)cc1 (single isomer, unassigned) [Example 237] | 8.52
O=C(O)C[C@H]1O[C@H](c2cccc(Cl)c2)[C@@H](c2ccc(Cl)cc2)N([C@H](CS(=O)(=O)N2CCc3cc(F)ccc32)C2CC2)C1=O (single isomer, unassigned) [Example 298, 2-((2R,5R,6R)-6-(3-Chlorophenyl)-5-(4-chlorophenyl)-4-((S)-1-cyclopropyl-2-((5-fluoroindolin-1-yl)sulfonyl)ethyl)-3-oxomorpholin-2-yl)acetic acid or 2-((2S,5R,6R)-6-(3-chlorophenyl)-5-(4-chlorophenyl)-4-((S)-1-cyclopropyl-2-((5-fluoroindolin-1-yl)sulfonyl)ethyl)-3-oxomorpholin-2-yl)acetic acid] | 7.59
O=C(O)C[C@H]1O[C@H](c2cccc(Cl)c2)[C@@H](c2ccc(Cl)cc2)N([C@H](CN(c2ccccc2F)S(=O)(=O)C2CC2)C(F)(F)F)C1=O (single isomer, unassigned) [Example 274] | 8.40
NC(=O)C[C@H]1O[C@H](c2cccc(Cl)c2)[C@@H](c2ccc(Cl)cc2)N([C@H](CN(c2ccccc2)S(=O)(=O)C2CC2)C2CC2)C1=O (single isomer, unassigned) [Example 360, 2-((2R,5R,6R)-6-(3-Chlorophenyl)-5-(4-chlorophenyl)-4-((S)-1-cyclopropyl-2-(N-phenylcyclopropanesulfonamido)ethyl)-3-oxomorpholin-2-yl)acetamide or 2-((2S,5R,6R)-6-(3-chlorophenyl)-5-(4-chlorophenyl)-4-((S)-1-cyclopropyl-2-(N-phenylcyclopropanesulfonamido)ethyl)-3-oxomorpholin-2-yl)acetamide] | 9.00
CC[C@@H](CS(=O)(=O)C(C)(C)C)N1C(=O)[C@@H](CC(=O)O)O[C@H](c2cccc(Cl)c2)[C@H]1c1ccc(Cl)s1 (single isomer, unassigned) [Example 219, 2-((2R,5S,6R)-4-((S)-1-(tert-butylsulfonyl)butan-2-yl)-6-(3-chlorophenyl)-5-(5-chlorothiophen-2-yl)-3-oxomorpholin-2-yl)acetic acid or 2-((2S,5S,6R)-4-((S)-1-(tert-butylsulfonyl)butan-2-yl)-6-(3-chlorophenyl)-5-(5-chlorothiophen-2-yl)-3-oxomorpholin-2-yl)acetic acid] | 9.00
CC(C)(C)S(=O)(=O)C[C@H](C1CC1)N1C(=O)[C@@H](CC(=O)NCC#N)O[C@H](c2cccc(Cl)c2)[C@H]1c1ccc(Cl)cc1 (single isomer, unassigned) [Example 349, 2-((2R,5R,6R)-4-((S)-2-(tert-Butylsulfonyl)-1-cyclopropylethyl)-6-(3-chlorophenyl)-5-(4-chlorophenyl)-3-oxomorpholin-2-yl)-N-(cyanomethyl)acetamide or 2-((2S,5R,6R)-4-((S)-2-(tert-butylsulfonyl)-1-cyclopropylethyl)-6-(3-chlorophenyl)-5-(4-chlorophenyl)-3-oxomorpholin-2-yl)-N-(cyanomethyl)acetamide] | 9.00
O=C(O)C[C@H]1OC(c2cccc(Cl)c2)C(c2ccc(Cl)cc2)N([C@H](CN(c2c(F)cccc2F)S(=O)(=O)C2CC2)C2CC2)C1=O (single isomer, unassigned) [Example 250] | > 9.00
CC[C@@H](CS(=O)(=O)C(C)(C)C)N1C(=O)[C@@H](CC(=O)O)O[C@H](c2cc(Cl)cc(Cl)c2)[C@H]1c1ccc(Cl)cc1 (single isomer, unassigned) [Example 147, 2-((2R,5R,6R)-5-(4-chlorophenyl)-6-(3,5-dichlorophenyl)-4-((S)-1-(tert-butylsulfonyl)butan-2-yl)-3-oxomorpholin-2-yl)acetic acid or 2-((2S,5R,6R)-5-(4-chlorophenyl)-6-(3,5-dichlorophenyl)-4-((S)-1-(tert-butylsulfonyl)butan-2-yl)-3-oxomorpholin-2-yl)acetic acid] | 8.22
Cc1ccc([C@H]2O[C@H](CC(=O)O)C(=O)N([C@H](CS(=O)(=O)C(C)(C)C)C3CC3)[C@@H]2c2ccc(Cl)cc2)cc1Cl [Example 327, 2-((2R,5R,6R)-4-((S)-2-(tert-Butylsulfonyl)-1-cyclopropylethyl)-6-(3-chloro-4-methylphenyl)-5-(4-chlorophenyl)-3-oxomorpholin-2-yl)acetic acid] | 7.29
CC[C@@H](CN(c1ncccc1F)S(=O)(=O)C1CC1)N1C(=O)[C@@H](CC(=O)O)O[C@H](c2cccc(Cl)c2)[C@H]1c1ccc(Cl)cc1 (single isomer, unassigned) [Example 177, 2-((2R,5R,6R)-6-(3-chlorophenyl)-5-(4-chlorophenyl)-4-((S)-1-(N-(3-fluoropyridin-2-yl)cyclopropanesulfonamido)butan-2-yl)-3-oxomorpholin-2-yl)acetic acid or 2-((2S,5R,6R)-6-(3-chlorophenyl)-5-(4-chlorophenyl)-4-((S)-1-(N-(3-fluoropyridin-2-yl)cyclopropanesulfonamido)butan-2-yl)-3-oxomorpholin-2-yl)acetic acid] | > 9.00
CC(C)(C)S(=O)(=O)C[C@H](C1CC1)N1C(=O)[C@@](C)(CC(=O)O)O[C@H](c2cccc(Cl)c2)[C@H]1c1ccc(Cl)c(F)c1 (single isomer, unassigned) [Example 411, 2-((2R,5R,6R)-4-((S)-2-(tert-Butylsulfonyl)-1-cyclopropylethyl)-5-(4-chloro-3-fluorophenyl)-6-(3-chlorophenyl)-2-methyl-3-oxomorpholin-2-yl)acetic acid or 2-((2S,5R,6R)-4-((S)-2-(tert-butylsulfonyl)-1-cyclopropylethyl)-5-(4-chloro-3-fluorophenyl)-6-(3-chlorophenyl)-2-methyl-3-oxomorpholin-2-yl)acetic acid] | > 9.00
CC(C)(C)S(=O)(=O)C[C@H](C1CC1)N1C(=O)[C@@H](CC(=O)O)O[C@H](c2ccc(C#N)c(Cl)c2)[C@H]1c1ccc(Cl)cc1 (single isomer, unassigned) [Example 324, 2-((2R,5R,6R)-4-((S)-2-(tert-Butylsulfonyl)-1-cyclopropylethyl)-6-(3-chloro-4-cyanophenyl)-5-(4-chlorophenyl)-3-oxomorpholin-2-yl)acetic acid or 2-((2S,5R,6R)-4-((S)-2-(tert-butylsulfonyl)-1-cyclopropylethyl)-6-(3-chloro-4-cyanophenyl)-5-(4-chlorophenyl)-3-oxomorpholin-2-yl)acetic acid] | 8.15
C[C@H]1CCCN1S(=O)(=O)C[C@H](C1CC1)N1C(=O)[C@@](C)(CC(=O)O)O[C@H](c2cccc(Cl)c2)[C@H]1c1ccc(Cl)cc1 (single isomer, unassigned) [Example 336, 2-((2R,5R,6R)-6-(3-Chlorophenyl)-5-(4-chlorophenyl)-4-((S)-1-cyclopropyl-2-(((S)-2-methylpyrrolidin-1-yl)sulfonyl)ethyl)-2-methyl-3-oxomorpholin-2-yl)acetic acid or 2-((2S,5R,6R)-6-(3-chlorophenyl)-5-(4-chlorophenyl)-4-((S)-1-cyclopropyl-2-(((S)-2-methylpyrrolidin-1-yl)sulfonyl)ethyl)-2-methyl-3-oxomorpholin-2-yl)acetic acid] | > 9.00
CC[C@@H](CN(c1ccccc1Cl)S(=O)(=O)C1CC1)N1C(=O)[C@@H](CC(=O)O)O[C@H](c2cccc(Cl)c2)[C@H]1c1ccc(Cl)cc1 (single isomer, unassigned) [Example 265, 2-((2R,5R,6R)-6-(3-chlorophenyl)-5-(4-chlorophenyl)-4-((S)-1-(N-(2-chlorophenyl)cyclopropanesulfonamido)butan-2-yl)-3-oxomorpholin-2-yl)acetic acid or 2-((2S,5R,6R)-6-(3-chlorophenyl)-5-(4-chlorophenyl)-4-((S)-1-(N-(2-chlorophenyl)cyclopropanesulfonamido)butan-2-yl)-3-oxomorpholin-2-yl)acetic acid] | 9.00
C[C@@H](CS(=O)(=O)C(C)(C)C)N1C(=O)[C@H](CC(=O)NCCO)O[C@H](c2cccc(Cl)c2)[C@H]1c1ccc(Cl)cc1 (single isomer, unassigned) [Example 233, 2-((2S,5R,6R)-4-((S)-1-(tert-butylsulfonyl)propan-2-yl)-6-(3-chlorophenyl)-5-(4-chlorophenyl)-3-oxomorpholin-2-yl)-N-(2-hydroxyethyl)acetamide or 2-((2R,5R,6R)-4-((S)-1-(tert-butylsulfonyl)propan-2-yl)-6-(3-chlorophenyl)-5-(4-chlorophenyl)-3-oxomorpholin-2-yl)-N-(2-hydroxyethyl)acetamide] | 8.22
CC(C)(C)S(=O)(=O)C[C@H](C1CC1)N1C(=O)[C@@H](CC(=O)NCC#N)O[C@H](c2cccc(Cl)c2)[C@H]1c1ccc(Cl)cc1 (single isomer, unassigned) [Example 348, 2-((2R,5R,6R)-4-((S)-2-(tert-Butylsulfonyl)-1-cyclopropylethyl)-6-(3-chlorophenyl)-5-(4-chlorophenyl)-3-oxomorpholin-2-yl)-N-(cyanomethyl)acetamide or 2-((2S,5R,6R)-4-((S)-2-(tert-butylsulfonyl)-1-cyclopropylethyl)-6-(3-chlorophenyl)-5-(4-chlorophenyl)-3-oxomorpholin-2-yl)-N-(cyanomethyl)acetamide] | 8.30
